# Source: patent publication US12590057B2, “Crystalline complexes” (Theracryf PLC, priority 2020, dated 2026)
# Columns and labels:
# Assay type in all cases: physicochemical
# [1] = KF water content of stability samples; details: for KF water content: Duma bottles without desiccant
# Method: The water content of each sample was measured on a Metrohm 874 Oven Sample Processor at 150° C. with 851 Titrano Coulometer using Hydranal Coulomat AG oven reagent and nitrogen purge. Weighed solid samples were introduced into a sealed sample vial. Approximately 10 mg of sample was used per titration and duplicate determinations were made. […] Data collection and analysis were performed using Tiamo software.
# The water content of samples of Form 1 (batch ref. LS19-0004-3-8002), Form 3 prepared by minimally-agitated drying ([…]; batch ref. 491-PAL-18) and Form 3 prepared by continuously-agitated filter drying (Example 5B trial 5; batch ref. 00173-005) was analysed by KF at the start of the stability study (initial) and after 2, 4 and 8 weeks storage in 60 ml Duma® bottles fitted with 45 mm Duma® caps (without desiccant) at 25° C./60% RH—see Table 16;
# In a separate study, samples of Form 3 (Example 5.3; batch ref. 491-PAL-18) having an initial water content by KF of 2.3% w/w were tested for water content at various time points after storage double bagged in a HDPE bottle under various conditions as shown in Table 17.
# [2] = Variable humidity XRPD (VH-XRPD) at 25° C.
# From the text: Non-ambient conditions: XRPD diffractograms were collected on a PANalytical Empyrean diffractometer using Cu Kα radiation (45 kV, 40 mA) in reflection geometry. The instrument is fitted with an Anton Paar CHC plus^+ stage fitted with graphite/Kapton windows and equipped with air cooling coupled with a proUmid MHG32 Modular Humidity Generator or a low vacuum pump system using an Edwards RV3 pump. A programmable divergence slit (in automatic mode), with a 10 mm fixed incident beam mask, Ni filter and 0.04 rad Soller slits were used on the incident beam. A PIXcel^3D detector, placed on the diffracted beam, was fitted with a programmable anti-scatter slit (in automatic mode) and 0.04 rad Soller slits. The software used for data collection was X'Pert Data Collector and the data analysed and presented using Diffrac Plus EVA or Highscore Plus. For variable humidity (VH-XRPD) experiments the samples were prepared and analysed in an Anton Paar chromed low-profile sample holder with silicon wafer insert. The measurement parameters are as per the standard screening data collection method (detailed above). For all variable humidity XRPD experiments, a pattern was recorded every hour. […] The Form 1 sample was loaded into the VH chamber, which was set to 40% RH and 25° C. and then the RH was decreased in 10% decrements to 10% RH followed by increasing the RH in 10% increments to 90% RH, while maintaining the temperature at 25° C. […] The sample then quickly transitioned from Form 1 at 80% RH to Form 2 at 90% RH. A variable humidity (VH) XRPD experiment was performed to examine how Form 3 exists under different RH conditions. […] The sample was stable as Form 2 for 8 hours at 80% RH. At 90% RH Form 2 existed for 2 hours before the sample deliquesced in the humidity chamber.
# [3] = GVS sorption-desorption isotherms; details: for water content at starting conditions (GVS): 40% RH and 25° C.; for additional water taken up (GVS): RH increased to 90%; for crystalline form by XRPD after GVS: after sorption/desorption cycle(s); for total water content (GVS): at 90% RH; for water taken up (GVS): between 0% and 60% RH (Form 1: at 60% RH)
# Method: Sorption isotherms were obtained using a SMS DVS Intrinsic moisture sorption analyser, controlled by DVS Intrinsic Control software. The sample temperature was maintained at 25° C. by the instrument controls. The humidity was controlled by mixing streams of dry and wet nitrogen, with a total flow rate of 200 ml/min. The relative humidity was measured by a calibrated Rotronic probe (dynamic range of 1.0-100% RH), located near the sample. The weight change, (mass relaxation) of the sample as a function of % RH was constantly monitored by a microbalance (accuracy±0.005 mg). Typically, 5-30 mg of sample was placed in a tared mesh stainless steel basket under ambient conditions. The sample was loaded and unloaded at 40% RH and 25° C. (typical room conditions). A moisture sorption isotherm was performed as outlined below (2 scans per complete cycle). The standard isotherm was performed at 25° C. at 10% RH intervals over a 0-90% RH range. Typically, a double cycle (4 scans) was carried out. Data analysis was carried out within Microsoft Excel using the DVS Analysis Suite. Samples of Example 1 (Form 1) and Example 3 (Form 3) were analysed for their sorption-desorption isotherms by GVS. […] The sample contained approximately 8% w/w water at the starting conditions of 40% RH and 25° C. […] Therefore, the second sorption profile seen in FIG. 18A is that of Form 3. […] The sample contained approximately 3-4% w/w water at the starting conditions of 40% RH and 25° C. […] A significant uptake of moisture occurred in the first sorption cycle between 60 and 70% RH equivalent to approximately 5% w/w.
# [4] = Chemical stability in biorelevant media
# Method: Samples of Form 1 (batch ref […]-0004-S-8002) and Form 3 (Example 5.4.1 (batch ref. 491PAL22; A-19-0132)) in 0.1 M HCl and FaSSIF media (1.2 mg/ml) were stored at ambient and 37° C. for up to 7 days. Chemical stability was assessed by determining the concentration of parent compound by HPLC on days 0, 3 and 7 in triplicate.
# [5] = Equilibrium solubility in biorelevant media (shake flask); set-up: Equilibrium solubility, Mean Conc: unit not given here; details: for equilibrium solubility in words: 0.1 M HCl and FaSSIF media; for Equilibrium solubility, Mean Conc: 37° C.
# Method: The equilibrium solubility of samples of Form 1 (batch ref […]-0004-S-8002) and Form 3 (Example 5.4.1 (batch ref, 491PAL22; A-19-0132)) in 0.1M HCl and FaSSIF media at 37° C. was carried out using the shake flask method. Samples were taken at 4 hours and 24 hours and centrifuged for 5 minutes at 15,000 rpm. The supernatant was removed and diluted with appropriate solvent prior to HPLC analysis of the parent concentrations.
# [6] = 0.1M HCl, ambient, Day 0, 1.2 mg/ml nominal, Form 3 = Example 5.4.1
# [7] = 0.1M HCl, 4 Hours, Form 3 = Example 5.4.1
# [8] = FaSSIF, 4 Hours, atypical HPLC data and variable results
# [9] = FaSSIF, 24 Hours, atypical HPLC data and variable results
SMILES,water content at starting conditions (GVS) [3],additional water taken up (GVS) ([3]; 25° C.),crystalline form by XRPD after GVS [3],total water content (GVS) ([3]; 25° C.),water taken up (GVS) [3],"Mean Conc of parent ([4]; 0.1M HCl, 37° C., Day 0)","Mean Conc of parent ([4]; 0.1M HCl, 37° C., Day 3)","Mean Conc of parent ([4]; 0.1M HCl, 37° C., Day 7)","Mean Conc of parent [4, 6]","Mean Conc of parent ([4]; 0.1M HCl, ambient, Day 3)","Mean Conc of parent ([4]; 0.1M HCl, ambient, Day 7)","Mean Conc of parent ([4]; FaSSIF, 37° C., Day 0)","Mean Conc of parent ([4]; FaSSIF, 37° C., Day 3)","Mean Conc of parent ([4]; FaSSIF, 37° C., Day 7)","Mean Conc of parent ([4]; FaSSIF, ambient, Day 0)","Mean Conc of parent ([4]; FaSSIF, ambient, Day 3)","Mean Conc of parent ([4]; FaSSIF, ambient, Day 7)",equilibrium solubility in words [5],"Equilibrium solubility, Mean Conc [5, 7]","Equilibrium solubility, Mean Conc ([5]; 0.1M HCl, 24 Hours)",also measured
C[S+]([O-])CCCCN=C=S.OCC1OC2OC3C(CO)OC(OC4C(CO)OC(OC5C(CO)OC(OC6C(CO)OC(OC7C(CO)OC(OC1C(O)C2O)C(O)C7O)C(O)C6O)C(O)C5O)C(O)C4O)C(O)C3O (stereo not shown) [Form 1],approximately 8 % w/w,4-5 % w/w,had converted to Form 3,12.9 % w/w,8-9 % w/w,1180 µg/mL,1060 µg/mL,1050 µg/mL,1220 µg/mL,1090 µg/mL,1050 µg/mL,1180 µg/mL,920 µg/mL,940 µg/mL,1160 µg/mL,960 µg/mL,900 µg/mL,high and comparable,632,2605,"KF water content ([1]; 2 weeks, 25° C./60% RH): 8.4 % w/w; KF water content ([1]; 4 weeks, 25° C./60% RH): 6.5 % w/w; KF water content ([1]; 8 weeks, 25° C./60% RH): 11.1 % w/w; KF water content ([1]; Initial, 25° C./60% RH study): 8.6 % w/w; solid state form (VH-XRPD) ([2]; Form 1 sample, RH reduced from 40% to 30% RH, 25° C.): intermediate phase; solid state form (VH-XRPD) ([2]; Form 1 sample, RH reduced to 20% RH, 25° C.): Form 3; solid state form (VH-XRPD) ([2]; Form 1 sample, after drying to 10% RH, RH increased to 70% RH): intermediate phase; solid state form (VH-XRPD) ([2]; Form 1 sample, after drying to 10% RH, RH increased to 80% RH): Form 1; solid state form (VH-XRPD) ([2]; Form 1 sample, after drying to 10% RH, RH increased to 90% RH): Form 2; hysteresis (GVS) ([3]; 25° C.): Significant hysteresis existed between 70% and 30% RH; Equilibrium solubility, Mean Conc [5, 8]: 271; Equilibrium solubility, Mean Conc [5, 9]: 247"
C[S+]([O-])CCCCN=C=S.OC[C@H]1O[C@@H]2O[C@H]3[C@H](O)[C@@H](O)[C@@H](O[C@H]4[C@H](O)[C@@H](O)[C@@H](O[C@H]5[C@H](O)[C@@H](O)[C@@H](O[C@H]6[C@H](O)[C@@H](O)[C@@H](O[C@H]7[C@H](O)[C@@H](O)[C@@H](O[C@H]1[C@H](O)[C@H]2O)O[C@@H]7CO)O[C@@H]6CO)O[C@@H]5CO)O[C@@H]4CO)O[C@@H]3CO [Form 3],3-4 % w/w,7-8 % w/w,remains as Form 3,11.1 % w/w,about 4 % w/w,1050 µg/mL,940 µg/mL,920 µg/mL,1080 µg/mL,940 µg/mL,1010 µg/mL,1010 µg/mL,800 µg/mL,780 µg/mL,1000 µg/mL,810 µg/mL,930 µg/mL,high and comparable,733,3057,"water content on extended exposure to high humidity ([1]; up to 6 months): does not increase significantly above about 5-6% w/w; RH at which the form starts to convert to a different form ([2]; 25° C., increasing RH): 70%; solid state form (VH-XRPD) ([2]; Form 3 sample, RH decreased to 70% RH, persisted to 40% RH): Form 2 converted to Form 1; solid state form (VH-XRPD) ([2]; Form 3 sample, RH raised from 40% up to 60%, 25° C.): Form 3 is maintained; solid state form (VH-XRPD) ([2]; Form 3 sample, RH raised to 70%): intermediate phase; solid state form (VH-XRPD) ([2]; Form 3 sample, RH raised to 80%): Form 2; solid state form (VH-XRPD) ([2]; Form 3 sample, after dropping from 90% to 80% RH): Form 2 returned as a highly crystalline material; time sample was stable as Form 2 (VH-XRPD) ([2]; Form 3 sample, at 80% RH): 8 h; time Form 2 existed before the sample deliquesced (VH-XRPD) ([2]; Form 3 sample, at 90% RH): 2 h; uptake of moisture in the first sorption cycle (GVS) ([3]; between 60 and 70% RH): approximately 5 % w/w; Equilibrium solubility, Mean Conc [5, 8]: 264; Equilibrium solubility, Mean Conc [5, 9]: 221"
